Structures are written as SMILES.

What all share (type): physicochemical
Data set [1] in a line: Visual color tone of polymerized plate under sunlight (Example 15). The settings on record: 0.05 part. The method, then: (§1) […] The mixed solution was injected into a mold which was made of a glass plate and a gasket formed of an ethylene-vinyl acetate copolymer, and was heated to a temperature of 35° to 90° C. in an air oven over a period of 20 hours for polymerization. After the polymerization was over, the polymer was withdrawn from the glass plate of the mold.
(§2) The resulting polymerized plate was irradiated with sunlight for 10 minutes. On this occasion, a color tone of said plate was visually observed. In this polymerized plate, the fulgide or fulgimide compound and the chromene compound were measured for fatigue life in the same manner as in Example 9. Further, a color tone of the polymerized plate was visually observed in T1/2 (hrs.) of the fulgide or fulgimide compound.

Data set [2] is described as follows: Fatigue life of fulgide/fulgimide and chromene compound in polymerized plate with ultraviolet light stabilizer (Example 16). The settings on record: 0.05 part.
The nature of data set [3]: Photochromic PMMA cast film: initial coloration density, maximum absorption wavelength and fatigue life in xenon fadeometer (Example 9).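 For Initial color density: initial color density is an absorbance value so the % unit is wrong.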 The note with it: PMMA cast film 0.1 mm. The text has this: The thickness of the cast film was adjusted to 0.1 mm.
(§3) T1/2 is defined as the time required for the color density to decrease to half of its initial value when the film is exposed to the fadeometer.

The nature of data set [4]: Fatigue life of fulgide/fulgimide and chromene compound in polymerized methacrylate plate (Example 15). The settings on record: for T1/2 of fulgide or fulgimide compound: 0.05 part. The method, then:
as §1, §2

Data set [5] in a line: Durability of poly(allyl diglycol carbonate) lens impregnated with the compound in silicone oil, as in Example 9 (Example 10). Also on record: Initial color density: unit not given here. The note with it: silicone oil impregnation. The method, then: as §3
The solution was impregnated in the surface of a lens composed of poly(allyl diglycol carbonate) at 200° C. for 1 hour. The concentration of the solution was adjusted to 1.0×10^-4 mole/g.

[6] abbreviates: with chromenes 1/2 (0.015/0.015 part).

In the case of `CC1CC1C1=C2C(=O)N(CCCCCc3cccc4ccccc34)C(=O)C2C2(c3sc4c(c31)CCCC4)C1CC3CC(C1)CC2C3` (stereo not shown) [(48)], the “Color tone in T0” value in data set [1] (with chromene 1 (0.04 part)) and in data set [1] (setting [6]) was “gray” in each case. Further, the “Color tone in T1/2” value in data set [1] (with chromene 1 (0.04 part)) and in data set [1] (setting [6]) was “gray” in each case. Further, the “T1/2 of fulgide or fulgimide compound” value in data set [2] (chromene 1 (0.04), Spinuvex A-36 (0.6)) was found to be 17.9 days; in data set [2] (chromene 2 (0.05), Cyasorb UV 1084 (0.6)), 17.5 days; in data set [2] (chromene 3 (0.1), Tinuvin 765 (0.7)), 18.8 days; in data set [2] (chromene 4 (0.1), UV Check AM101 (0.4)) it was 18.3 days; in data set [2] (chromene 5 (0.05), Tinuvin 622 (0.7)) it was 18.8 days; in data set [4] (with chromene 1 (0.04 part)), 6.42 days. Further, the “T1/2 of fulgide or fulgimide compound” value in data set [4] (setting [6]) amounted to 6.42 days. The results for the λmax in data set [3] (xenon light) and in data set [5] were 588 nm and 590 nm, respectively. Moreover, the Initial color density in data set [3] (xenon light, no stabilizer) is recorded as 0.75%; in data set [5] (1.0×10^-4 mole/g), 0.67. The T1/2 in data set [3] (time for color density to fall to half of initial value, xenon fadeometer, no stabilizer) is 2.58 days; in data set [5] (xenon fadeometer), 2.71 days.

As to `CCCCCCCCOc1cccc2c3c(ccc12)C=CC(C)(C)O3` [Chromene compound 5, 2,2-dimethyl-7-octoxy[2H]benzo[h]chromene], the “T1/2 of chromene compound” value in data set [2] (fulgimide 2 (0.05), Mark LA-87 (0.5)) was 18.8 days; in data set [2] (fulgimide 48 (0.05), Tinuvin 622 (0.7)), 17.9 days; in data set [4] (0.03 part, with fulgide/fulgimide 17 (0.05 part)), 5 days; in data set [4] (0.04 part, with fulgide/fulgimide 15 (0.05 part)), 8 days; in data set [4] (0.07 part, with fulgide/fulgimide 46 (0.05 part)) it was 6.46 days.

Source of the values: patent US5708063A, “Photochromic compound” (Tokuyama Corporation, priority 1993, dated 1998).
